{"source": "patent US8034811B2", "about": "“Hydroxamic acid esters and pharmaceutical use thereof” (Leo Pharma A/S, priority 2003, dated 2011)", "data": [{"target": "T1, human intracellular domain of KDR (VEGF Receptor-2) (Homo sapiens, UniProt P35968)", "T1 construct": "A fusion protein containing the intracellular domain (amino acids 793 to 1357) of the KDR and N-terminally tagged to GST; made in house; host or cells: Sf9 insect cells (baculovirus, pDEST20) for GST-KDR-cyt; E. coli BL21 (pGEX-4T-1) for GST-PLCγ", "T1 sequence (P35968 794-1356 limits assumed)": "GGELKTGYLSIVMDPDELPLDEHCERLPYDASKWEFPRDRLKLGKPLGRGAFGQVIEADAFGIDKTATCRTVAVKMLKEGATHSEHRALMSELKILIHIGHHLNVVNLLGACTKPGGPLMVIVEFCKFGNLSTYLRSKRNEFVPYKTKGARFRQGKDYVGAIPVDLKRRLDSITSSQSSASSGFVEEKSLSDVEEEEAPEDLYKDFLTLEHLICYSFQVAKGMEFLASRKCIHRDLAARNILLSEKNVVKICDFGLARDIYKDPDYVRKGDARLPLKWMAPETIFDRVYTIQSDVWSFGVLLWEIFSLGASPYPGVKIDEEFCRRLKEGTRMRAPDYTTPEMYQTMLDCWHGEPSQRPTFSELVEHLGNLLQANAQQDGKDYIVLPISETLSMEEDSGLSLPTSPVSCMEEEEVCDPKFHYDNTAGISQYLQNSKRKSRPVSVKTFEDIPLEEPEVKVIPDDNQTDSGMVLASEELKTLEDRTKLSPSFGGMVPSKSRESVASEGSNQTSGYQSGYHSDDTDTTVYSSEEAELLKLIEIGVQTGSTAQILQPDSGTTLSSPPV", "experiment": "In vitro KDR kinase assay", "format": "biochemical", "settings": "IC50 as molar concentration; GST-KDR-cyt, substrate phospholipase Cγ, ATP 100 μM, 30 min room temperature, time-resolved fluorometry", "method": "The intracellular domain of the KDR receptor was used in the in vitro KDR assay. This domain contains the tyrosine kinase domain of KDR, and when expressed in Sf9 cells, this domain is constitutively active i.e. the kinase domain is phosphorylated on tyrosine residues.\nThe compounds to be tested were dissolved in DMSO at 10 mM, stored at −20° C. and protected from light. The maximum concentration of DMSO in the in vitro assay was 0.1%. Control samples received the same concentration of solvent as the samples treated with the test compounds.\nFor the kinase assays, black 96 wells MaxiSorp microtiter plates were coated by an overnight incubation with 100 μl/well of a 2.5 μg/ml solution of phospholipase Cγ in TBS buffer (40 mM Tris-HCl, pH 7.4, 20 mM Mg(C2H3O2)2, 0.02% NaN3) at 4° C. The plates were washed 3 times with TBS buffer containing 0.1% Tween-20, and the residual binding sites were masked by incubation with 1% BSA in TBS buffer containing 0.1% Tween-20 for 1 h. The plates were washed again and the test compounds were added at final concentrations up to 10 μM, together with ATP at the final concentration of 100 μM in 50 μl TBS buffer/well. Then, 50 μl of the human intracellular domain of KDR (VEGF Receptor-2) finally diluted 3000-3500 fold were added and were incubated for 30 min at room temperature. The plates were washed and 100 μl of the Europium labelled PY-20 anti-phosphotyrosine antibody (Wallac, FIN) were incubated in each well at the concentration of approximately 114 ng/ml for 2 h. Then, the plates were washed and 100 μl of enhancer solution (Wallac, FIN) were incubated in each well for 5 min in the dark. The plates were read in a Victor 1420 multilabel counter, using a Europium protocol for time-resolved fluorometry (Wallac, FIN): excitation 340 nm, emission 615 nm, sample pulse cycle 400 μs. Fluorescence was measured for 400 μs between flashes after a delay time of 400 μs. The background measured in the absence of enzyme was subtracted from all samples. The molar concentrations that inhibited 50% of the maximal enzymatic activity (IC50) were calculated from the dose-response curve, by fitting a straight line between the two concentrations immediately above and below the 50% inhibition point (i.e. by solving the equation y=a+bx).", "units": {"IC50": "nM"}, "values": [{"smiles": "CO[C@@H]1CCC[C@H](CONC(=O)c2ccccc2NCc2ccncc2)C1", "note": "(stereo in doubt) [Compound 131, N-(3-Methoxy-cyclohexylmethoxy)-2-[(pyridin-4-ylmethyl)-amino]-benzamide]", "IC50": 39.8}, {"smiles": "O=C(NOCC1C[C@@H]2CC[C@H]1C2)c1ccccc1NCc1ccncc1", "note": "(stereo in doubt) [Compound 133, N-(Bicyclo[2.2.1]hept-2-ylmethoxy)-2-[(pyridin-4-ylmethyl)-amino]-benzamide]", "IC50": 20}, {"smiles": "O=C(NOCc1ccccc1)c1ccccc1NCc1ccncc1", "note": "[Compound 1, N-Benzyloxy-2-[(pyridin-4-ylmethyl)-amino]-benzamide]", "IC50": 79.4}, {"smiles": "O=C(NOCc1ccc([N+](=O)[O-])cc1)c1ccccc1NCc1ccncc1", "note": "[Compound 2, N-(4-Nitro-benzyloxy)-2-[(pyridin-4-ylmethyl)-amino]-benzamide]", "IC50": 126}, {"smiles": "O=C(NOCc1ccccc1[N+](=O)[O-])c1ccccc1NCc1ccncc1", "note": "[Compound 3, N-(2-Nitro-benzyloxy)-2-[(pyridin-4-ylmethyl)-amino]-benzamide]", "IC50": 100}, {"smiles": "O=C(NOCc1cccc(C(F)(F)F)c1)c1ccccc1NCc1ccncc1", "note": "[Compound 4, 2-[(Pyridin-4-ylmethyl)-amino]-N-(3-trifluoromethyl-benzyloxy)-benzamide]", "IC50": 200}, {"smiles": "O=C(NOCc1ccccc1C(F)(F)F)c1ccccc1NCc1ccncc1", "note": "[Compound 5, 2-[(Pyridin-4-ylmethyl)-amino]-N-(2-trifluoromethyl-benzyloxy)-benzamide]", "IC50": 31.6}, {"smiles": "O=C(NOCc1ccc(C(F)(F)F)cc1)c1ccccc1NCc1ccncc1", "note": "[Compound 6, N2-[(Pyridin-4-ylmethyl)-amino]-N-(4-trifluoromethyl-benzyloxy)-benzamide]", "IC50": 63.1}, {"smiles": "COc1ccc(CONC(=O)c2ccccc2NCc2ccncc2)cc1", "note": "[Compound 7, N-(4-Methoxy-benzyloxy)-2-[(pyridin-4-ylmethyl)-amino]-benzamide]", "IC50": 39.8}, {"smiles": "COc1cccc(CONC(=O)c2ccccc2NCc2ccncc2)c1", "note": "[Compound 8, N-(3-Methoxy-benzyloxy)-2-[(pyridin-4-ylmethyl)-amino]-benzamide]", "IC50": 31.6}, {"smiles": "COc1cc(CONC(=O)c2ccccc2NCc2ccncc2)cc(OC)c1OC", "note": "[Compound 9, 2-[(pyridin-4-ylmethyl)-amino]-N-(3,4,5-trimethoxy-benzyloxy)-benzamide]", "IC50": 100}, {"smiles": "O=C(NOCc1ccc(Cl)cc1)c1ccccc1NCc1ccncc1", "note": "[Compound 10, N-(4-Chloro-benzyloxy)-2-[(pyridin-4-ylmethyl)-amino]-benzamide]", "IC50": 50.1}, {"smiles": "O=C(NOCc1cccc(Cl)c1)c1ccccc1NCc1ccncc1", "note": "[Compound 11, N-(3-Chloro-benzyloxy)-2-[(pyridin-4-ylmethyl)-amino]-benzamide]", "IC50": 126}, {"smiles": "O=C(NOCc1ccccc1Cl)c1ccccc1NCc1ccncc1", "note": "[Compound 12, N-(2-Chloro-benzyloxy)-2-[(pyridin-4-ylmethyl)-amino]-benzamide]", "IC50": 15.8}, {"smiles": "O=C(NOCc1ccccc1Br)c1ccccc1NCc1ccncc1", "note": "[Compound 13, N-(2-Bromo-benzyloxy)-2-[(pyridin-4-ylmethyl)-amino]-benzamide]", "IC50": 15.8}, {"smiles": "O=C(NOCc1ccc(Cl)cc1Cl)c1ccccc1NCc1ccncc1", "note": "[Compound 14, N-(2,4-Dichloro-benzyloxy)-2-[(pyridin-4-ylmethyl)-amino]-benzamide]", "IC50": 6.31}, {"smiles": "O=C(NOCc1ccc(Cl)c(Cl)c1)c1ccccc1NCc1ccncc1", "note": "[Compound 15, N-(3,4-Dichloro-benzyloxy)-2-[(pyridine-4-ylmethyl)-amino]-benzamide]", "IC50": 50.1}, {"smiles": "O=C(NOCc1c(Cl)cccc1Cl)c1ccccc1NCc1ccncc1", "note": "[Compound 16, N-(2,6-Dichloro-benzyloxy)-2-[(pyridin-4-ylmethyl)-amino]-benzamide]", "IC50": 25.1}, {"smiles": "O=C(NOCc1cc(Cl)cc(Cl)c1)c1ccccc1NCc1ccncc1", "note": "[Compound 17, N-(3,5-Dichloro-benzyloxy)-2-[(pyridin-4-ylmethyl)-amino]-benzamide]", "IC50": 63.1}]}]}
